Drawing on patent US12404270B2, “Quinazoline derivatives as LPA receptor 2 inhibitors” (CHIESI FARMACEUTICI S.P.A., priority 2019, dated 2025), this text covers IC50 for 1 compound.

For the assay, the target named is T1, human recombinant LPA2 expressed in CHO cells (Homo sapiens, UniProt Q9HBW0).
T1 construct: expressed in transfected cells; host or cells: CHO (CHO-hLPA2 cell line)
The experiment in a line: FLIPR calcium mobilization assay, LPA2 antagonism in CHO-hLPA2 cells. Type of assay: cell-based. To be noted: CHO-hLPA2 cells, inhibition of LPA EC80 Ca2+ response, 30 min pre-incubation; read-out: LPA2 IC50. The method, then:
The effectiveness of compounds of the present invention as LPA2 antagonist can be determined at the human recombinant LPA2 expressed in CHO cells, using a FLIPR assay in 384 well format.
CHO-hLPA2 cell lines are cultured in a humidified incubator at 5% CO2 in DMEM/F-12 (1:1) MIXTURE with 2 mM Glutamax, supplemented with 10% of Foetal Bovine Serum, 1 mM Sodium Pyruvate, 11 mM Hepes and 1× Penicillin/Streptomycin. CHO hLPA2 cells are seeded into black walled clear-bottom 384-well plates (#781091, Greiner Bio-One GmbH) at a density of 7,500 cells per well in 50 μl culture media and grown overnight in a 37° C. humidified CO2-incubator. Serial dilutions (1:3 or 1:4, 11 points CRC) of compounds are performed in 100% DMSO at 200× the final concentration. The compounds are diluted 1:50 prior to the experiment with Assay Buffer (20 mM HEPES, 145 mM NaCl, 5 mM KCl, 5.5 mM glucose, 1 mM MgCl2 and 2 mM CaCl2, pH 7.4 containing 0.01% Pluronic F-127) to obtain a solution corresponding to […] the final concentration in the assay (4×, 2% DMSO). The final concentration of DMSO in the assay will be 0.5% in each well. Medium is removed by aspiration and cells are then incubated with 30 μl of a loading solution containing 5 μM of the cytoplasmic Ca2+ indicator Cal-520 AM in Assay Buffer containing 2.5 mM probenecid for 30 min at 37° C. incubator (cell loading). The loaded cell plates are transferred into the FLIPR instrument and calcium responses are monitored during the on-line addition protocols. For testing of compounds, after the cell loading, 10 μl/well of 4× antagonists' solution was added onto the cells. […] Intracellular peak fluorescence values subtracted by baseline fluorescence are exported and analysed to determine IC50 values, respectively. The calcium response is expressed as percentage of the maximal inhibition of the EC80 agonist response.
The raw data (peak height expressed as relative fluorescence units) are normalized and transformed into “percent of inhibition”. Curve fitting and pIC50 (−Log IC50) estimations are carried out using a four-parameter logistic model using XLfit Software.
Background: A change in cytosolic calcium serves as a functional read-out for many receptors and channels.

T1 sequence (Q9HBW0 whole entry): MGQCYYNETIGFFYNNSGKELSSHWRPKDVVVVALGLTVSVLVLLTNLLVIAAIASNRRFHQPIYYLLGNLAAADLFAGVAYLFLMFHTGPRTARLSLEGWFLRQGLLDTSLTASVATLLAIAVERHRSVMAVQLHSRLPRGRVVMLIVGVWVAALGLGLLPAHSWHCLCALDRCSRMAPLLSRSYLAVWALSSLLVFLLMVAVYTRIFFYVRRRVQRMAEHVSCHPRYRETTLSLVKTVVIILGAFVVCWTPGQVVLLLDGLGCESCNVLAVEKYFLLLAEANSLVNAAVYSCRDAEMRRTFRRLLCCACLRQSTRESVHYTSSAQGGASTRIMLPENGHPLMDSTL

A word on the IC50: it is the midpoint of a concentration-inhibition curve. As to `COC(=O)Nc1nc(C)c(S(=O)(=O)N2CCN(C[C@H](C)Nc3nc(C4CC4)nc4ccccc34)CC2)s1` [Example 15, methyl N-[5-({4-[(2S)-2-[(2-cyclopropylquinazolin-4-yl)amino]propyl]piperazin-1-yl}sulfonyl)-4-methyl-1,3-thiazol-2-yl]carbamate], the IC50 was below 1000 nM.
